Results from publication PMC8881002 (Journal of molecular structure, 2021).

Assays:
electric eel AChE [1] = molecular target: T1, electric eel AChE (Electrophorus electricus, UniProt O42275); test: biochemical
electric eel AChE [2] = molecular target: T1, electric eel AChE; test: Kinetic analysis of AChE inhibition; type: biochemical

T1 sequence (O42275 24-633): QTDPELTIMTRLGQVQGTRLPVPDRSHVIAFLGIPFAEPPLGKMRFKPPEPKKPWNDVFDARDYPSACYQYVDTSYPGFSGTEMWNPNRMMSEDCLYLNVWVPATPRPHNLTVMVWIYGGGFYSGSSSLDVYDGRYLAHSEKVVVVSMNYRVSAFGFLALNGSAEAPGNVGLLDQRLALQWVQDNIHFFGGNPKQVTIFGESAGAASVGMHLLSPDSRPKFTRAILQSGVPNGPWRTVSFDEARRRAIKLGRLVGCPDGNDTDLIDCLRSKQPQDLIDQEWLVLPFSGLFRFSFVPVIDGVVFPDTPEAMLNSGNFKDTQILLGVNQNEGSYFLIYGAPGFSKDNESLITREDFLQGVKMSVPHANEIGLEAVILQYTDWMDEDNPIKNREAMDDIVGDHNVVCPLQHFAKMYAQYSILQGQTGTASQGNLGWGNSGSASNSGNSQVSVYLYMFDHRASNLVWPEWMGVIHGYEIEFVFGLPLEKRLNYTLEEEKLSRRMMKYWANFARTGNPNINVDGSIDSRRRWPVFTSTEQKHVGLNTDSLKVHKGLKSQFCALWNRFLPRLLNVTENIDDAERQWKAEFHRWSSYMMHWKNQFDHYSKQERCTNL

Structure (SMILES)	IC50 (electric eel AChE [1])	Ki (electric eel AChE [2])	type of inhibition (electric eel AChE [2]; Lineweaver-Burke double reciprocal plot, electric eel AChE)
COc1cc2c(cc1OC)C(=O)C(CC1CCN(Cc3ccccn3)CC1)C2 (centres unmarked) [Analog 1, 5,6-dimethoxy-2-((1-(pyridin-2-ylmethyl)piperidin-4-yl)methyl)-2,3-dihydro-1H-inden-1-one]	793 nM		
COc1cc2c(cc1OC)C(=O)C(CC1CCN(Cc3cccnc3)CC1)C2 (centres unmarked) [Analog 2, 5,6-dimethoxy-2-((1-(pyridin-3-ylmethyl)piperidin-4-yl)methyl)-2,3-dihydro-1H-inden-1-one]	51 nM	62 nM	mixed-type inhibition
COc1cc2c(cc1OC)C(=O)C(CC1CCN(Cc3ccncc3)CC1)C2 (centres unmarked) [Analog 3, 5,6-dimethoxy-2-((1-(pyridin-4-ylmethyl)piperidin-4-yl)methyl)-2,3-dihydro-1H-inden-1-one]	334 nM		
COc1cc2c(cc1OC)C(=O)C(CC1CCN(Cc3ccnc4ccccc34)CC1)C2 (centres unmarked) [Analog 4, 5,6-dimethoxy-2-((1-(quinolin-4-ylmethyl)piperidin-4-yl)methyl)-2,3-dihydro-1H-inden-1-one]	356 nM		
COc1cc2c(cc1OC)C(=O)C(CC1CCN(Cc3ccnc(Cl)c3)CC1)C2 (centres unmarked) [Analog 5, 2-((1-((2-chloropyridin-4-yl)methyl)piperidin-4-yl)methyl)-5,6-dimethoxy-2,3-dihydro-1H-inden-1-one]	2060 nM		
COc1cc2c(cc1OC)C(=O)C(CC1CCN(Cc3ccnc(Br)c3)CC1)C2 (centres unmarked) [Analog 6, 2-((1-((2-bromopyridin-4-yl)methyl)piperidin-4-yl)methyl)-5,6-dimethoxy-2,3-dihydro-1H-inden-1-one]	1800 nM		
COc1cc2c(cc1OC)C(=O)C(CC1CCN(Cc3ccncc3Cl)CC1)C2 (centres unmarked) [Analog 7, 2-((1-((3-chloropyridin-4-yl)methyl)piperidin-4-yl)methyl)-5,6-dimethoxy-2,3-dihydro-1H-inden-1-one]	364 nM		
COc1cc2c(cc1OC)C(=O)C(CC1CCN(Cc3c(Cl)cncc3Cl)CC1)C2 (centres unmarked) [Analog 8, 2-((1-((3,5-dichloropyridin-4-yl)methyl)piperidin-4-yl)methyl)-5,6-dimethoxy-2,3-dihydro-1H-inden-1-one]	4320 nM		
COc1cc2c(cc1OC)C(=O)C(CC1CCN(Cc3cccnc3F)CC1)C2 (centres unmarked) [Analog 9, 2-((1-((2-fluoropyridin-3-yl)methyl)piperidin-4-yl)methyl)-5,6-dimethoxy-2,3-dihydro-1H-inden-1-one]	718 nM		
COc1cc2c(cc1OC)C(=O)C(CC1CCN(Cc3cccnc3Cl)CC1)C2 (centres unmarked) [Analog 10, 2-((1-((2-chloropyridin-3-yl)methyl)piperidin-4-yl)methyl)-5,6-dimethoxy-2,3-dihydro-1H-inden-1-one]	414 nM		
COc1cc2c(cc1OC)C(=O)C(CC1CCN(Cc3cccnc3Br)CC1)C2 (centres unmarked) [Analog 11, 2-((1-((2-bromopyridin-3-yl)methyl)piperidin-4-yl)methyl)-5,6-dimethoxy-2,3-dihydro-1H-inden-1-one]	1120 nM		
COc1cc2c(cc1OC)C(=O)C(CC1CCN(Cc3ccc(C)nc3)CC1)C2 (centres unmarked) [Analog 12, 5,6-dimethoxy-2-((1-((6-methylpyridin-3-yl)methyl)piperidin-4-yl)methyl)-2,3-dihydro-1H-inden-1-one]	928 nM		
